Reference: patent US10471025B2, “Compositions for use in treating parkinson's disease and related disorders” (Technophage, Investigação E Desenvolvimento Em …, priority 2015, dated 2019)
Several values for one entry are separate records, joined by “and”; a condition that tells them apart may be missing. Identical values can stand only once. Entries after “also recorded” stand apart in the source; their conditions may differ. Counter-ions that a name gives are not always drawn. Like-named read-outs stand apart in the source and are kept apart here.

Tests used:
[1] = test system: 6-OHDA treated zebrafish larvae; assay: Locomotor behavior rescue (total distance moved, number of jumps) in 6-OHDA zebrafish PD model; format: in vivo
Source text: To model Parkinson ̆s disease (PD), a neurotoxin 6-OHDA (6-hyroxydopamine) based method was used in zebrafish and in mice. In this model, 6-OHDA-lesions induce motor manifestations in zebrafish and in mice, such as reduced locomotor ability, and the loss of dopaminergic neurons. Based on the 6-OHDA PD zebrafish model, compounds from a small molecules library were screened for rescue of the parkinsonian phenotype (Example 1, see below).
The screen was based on both the recovery of impaired locomotor behavior and dopaminergic neuronal loss.
Values were normalized for the mean of disease state in each experiment (disease=1). Each plot contains data from 3 independent experiments with a total of 24 larvae. As a control, zebrafish were treated with only the vehicle, ascorbic acid.
For these experiments, Tubingen (TU) wild-type zebrafish, a specific strain of wild-type zebrafish, were used.

healthy wild type mice = assay: Toxicity assay, welfare and necropsy (Example 6); conditions: 24 h
Experimental: Their behavior was evaluated with open field tests for 1 h after i.p. injection. After 24 h, animals were sacrificed and necropsy was performed
9 week old NMRI female mice were used for this assay. Animals were tested for their welfare after two intraperitoneal injections of the test agents using the open field test. Necropsy was done after cervical dislocation. […] Benserazide at 12 mg/kg was administered 30 minutes prior to administration of these compounds, in all groups. Saline was given to the control group.
After benserazide administration, animals were monitored in the open field for 30 minutes for habituation. […] 24 hours after administration of the compounds, the animals were sacrificed and necropsy performed.
For administration of the various agents to the animals, two 700 ? L injections were administered 30 minutes apart.

[2] = cited from earlier work
[3] = test system: 6-OHDA treated zebrafish larvae; assay: Co-administration with L-Dopa, total distance 6-OHDA larvae move; format: in vivo; conditions: hydrochloride; for Effect of co-administration with L-Dopa on locomotor recovery: total distance, L-Dopa 250 or 125 μM
rabbit = conditions: oral administration; cited from earlier work
rat = conditions: cited from earlier work
[4] = chronic dosing; cited from earlier work
[5] = cited from earlier work; remark: listed apart in the source
6-OHDA mouse model [6] = assay: Cylinder test, 6-OHDA mice (Example 5); format: in vivo
[7] = cited from earlier work; remark: listed apart in the source
[8] = storage below 25 éC; cited from earlier work
[9] = test system: 6-OHDA treated zebrafish larvae; assay: Freezing (duration of freezing periods, light/dark stimulus) in 6-OHDA zebrafish larvae; format: in vivo; conditions: tapentadol 48.5, stavudine 50, nabumetone 0.91 μM; L-Dopa treatment
Experimental: In the zebrafish model, the locomotor impairment was measured and related with bradykinesia in patients. Tests included evaluating ‘freezing_ in response to a light/dark stimulus. 6-OHDA induced larvae had fewer freezing episodes but spent longer periods in the frozen state. In previous studies, the duration of freezing episodes has been analyzed in PD patients. […] Nonetheless, it is an inhibitor of the neuronal dopamine transporter and since 6-OHDA needs DAT to enter the neuron and induce the disease, methylphenidate may be a false positive.
As FIGS. 9B-9C show, freezing recovery was tested using 7 candidate molecules at optimal concentrations, in an exemplary experiment with n=8 fish, and methylphenidate and amantadine at 25 ? M.

6-OHDA mouse model [10] = format: in vivo; conditions: for Gait test: maximum velocity, mean velocity, percentage of time resting or moving fast: tapentadol hydrochloride 8 or 15 mg/kg/day, hydrochloride
Experimental: That is, tapentadol hydrochloride C1 concentration dosage was increased to 8 mg/kg/day and tapentadol hydrochloride C3 concentration dosage was increased to 15 mg/kg/day. The gait test plan is illustrated in FIGS. 24A-24B.
To better observe the movement pattern of mice ̆s limbs, a new device was engineered similar to that used in a beam test, but with a closed corridor and a door. The apparatus was transparent with two home-cages at the extremities, one at the entrance that is transparent and another on the opposite end that is black. Each test was repeated 5 times and the 3 more consistent trials were selected for paw placement analysis. Data was recorded by 3 different cameras: on the bottom, top, and side of the corridor. Each camera allowed measurement of a different gait parameter. Specifically, the bottom camera allowed measurement, through the base of the support, of the hind paw distance and hind paw angle. The top camera allowed measurement of different parameters at distinct zones^—in the green area (most of the length of the apparatus), maximum and mean velocity, percentage of time resting/moving slow/moving fast, and time to the door were measured; the dark blue area provided a lag zone; and in the yellow area (area in front of the door), the permanence time before the door, mean velocity before the door, and latency to cross the door were measured. The side camera was used to analyze mice posture.

6-OHDA mouse model [11] = assay: Rotarod test, unilateral striatal 6-OHDA mice (Example 5); format: in vivo
[12] = test system: 6-OHDA treated zebrafish larvae; assay: LD50 / lethality in the disease context of the zebrafish model
6-OHDA mouse model [13] = assay: Abnormal involuntary movements, 6-OHDA mice (Example 5); format: in vivo; conditions: 28 days post injection; 30 and 90 minutes after treatment
Experimental: This condition results in a range of involuntary movements that can be evaluated by video tracking analyses. […] Evaluations were performed during two independent trials, 30 and 90 minutes after treatment administration. […] Nonetheless, forelimb and orofacial involuntary movements are extremely hard to detect, and reading errors occur, considering the size of the animals. Total abnormal involuntary movements are the sum of all 4 different involuntary movements evaluated and is the parameter often reported in the literature.
As FIGS. 17A-17F show, abnormal involuntary movements were evaluated using the cylinder test 28 days post injection. […] Values mean ě SEM (n=5-8).

CC[C@@H](c1cccc(O)c1)[C@@H](C)CN(C)C [tapentadol, tapentadol hydrochloride]
Therapeutic window ([1]; 6-OHDA zebrafish larvae): 20 to 113 µM
Locomotor behavior rescue (total distance moved, number of jumps), confirmation of screen ([1]; 7 candidate molecules, 3 independent experiments): strong candidates
Optimal concentration ([1]; behavioral experiments and TH+ cell counts): 48.5 µM
Total distance travelled, difference between treated larvae and disease control ([1]; tapentadol 48.5, stavudine 50, nabumetone 0.456 and 0.91 μM, n=8 fish): ~200 mm
Number of jumps: concentration validated as recovering the 6-OHDA induced behavior ([1]; zebrafish, in vivo): 56.25 µM
Necropsy findings (healthy wild type mice; tapentadol C1 8.3 mg/kg in combination with L-Dopa): Two of the three animals treated with tapentadol C1 concentration had a slight hyperemia in the small intestine
Necropsy findings (healthy wild type mice; tapentadol C3 15 mg/kg in combination with L-Dopa): One of the three animals treated with tapentadol C3 concentration had an intestinal congestion
Absorption after oral administration ([2]; dog, mice, and rats): completely absorbed
Bioavailability ([2]; dogs and rats): low
Placenta-blood barrier crossing ([2]; in vivo): crosses the placenta-blood barrier, but to a lesser extent
Tapentadol w L-Dopa: effectiveness with L-Dopa 250 relative to 125 ([3]; co-administration with L-Dopa 250 vs 125, listed as Tapentadol HCl): less and equally
Effect of co-administration with L-Dopa on locomotor recovery ([3]; listed as Tapentadol): not affected
Effect of co-administration with L-Dopa on locomotor recovery ([3]; listed as tapentadol hydrochloride): the same or improved
LD50 (rabbit): 3,200 mg/kg
LD50 (rat; intravenous administration, rats): 45 mg/kg
LD50 (rat; oral administration, rat): 980 mg/kg
Hepatic hypertrophy [4]: present in all animal species
Plasma protein binding ([5]; all species tested including humans): 15-20%
Plasma protein binding ([5]; plasma): approximately 20%
Cylinder test: recovery over the parameters analyzed (6-OHDA mouse model [6]; concentration 1 (2.8 mg/kg/day), hydrochloride, 2.8 mg/kg/day): showed a recovery; also recorded: strongest recovery
Cylinder test: recovery over the parameters analyzed (6-OHDA mouse model [6]; concentration 2 (0.9 mg/kg/day)): did not show significant recovery
Dose with exaggerated pharmacological effects ([7]; 52-week dog study, oral dosing): 30 mg/kg
Dose groups with QT prolongation ([7]; dogs, hydrochloride): 80 mg/kg and 120 mg/kg
Re-test period [8]: 30 months
Duration of freezing periods, recovery vs 6-OHDA treated larvae [9]: not recovered
Gait test: all parameters measured (6-OHDA mouse model [10]; 21 dpi, L-Dopa ON period): no significant improvement
Gait test: permanence time before the door, latency to cross the door, mean velocity before the door (6-OHDA mouse model [10]; 29 dpi, L-Dopa OFF period): behavioral recovery
Gait test: maximum velocity, mean velocity, percentage of time resting or moving fast (6-OHDA mouse model [10]; 29 dpi, L-Dopa OFF period, listed as Tapentadol hydrochloride): behavioral recovery
Gait test: maximum velocity, mean velocity, percentage of time resting or moving fast (6-OHDA mouse model [10]; 29 dpi, L-Dopa OFF period, listed as tapentadol hydrochloride): ameliorated
Rotarod: latency to fall and speed, recovery (6-OHDA mouse model [11]; C1 2.8 mg/kg/day i.p., 8 and 15 days post lesion): best recovery between groups, although not significant
Rotarod: latency to fall and speed, recovery (6-OHDA mouse model [11]; daily i.p., dosages tested (C1 and C2)): behavioral recovery over time
LD50 ([12]; 6-OHDA disease-induced zebrafish larvae): 8079 | M
LD50 ([12]; 6-OHDA zebrafish larvae): 8,079 μM
Induction of abnormal involuntary movements (6-OHDA mouse model [13]): None of the treatments, tapentadol or stavudine of the combination, induced involuntary movements
